The test system of the assay is Laminin 421/521. Description: Phage display library screening (Example 2), NEB laminin-binding peptides. Set-up: species or system human. The note with it: Laminin 421/521, not 211 and 411; combined unique sequence count, Python/R script analysis. The procedure: Phage display library screens were used to identify peptides that bind to target proteins (including specific laminin trimers) that are expressed in human nerves, as described in Table 3. These screens were also carried out to identify peptides that could bind selectively to nerves versus muscle. Such peptides could therefore be useful for systemic in-vivo labeling of nerves during fluorescence assisted surgery. Specifically, m 13 phage libraries expressing 7 or 12 random amino acid peptides, or a cyclic peptide CX7C, on the N-terminus of the minor coat protein pIII (New England Biolabs; NEB) were processed through multiple rounds of selection for binding to target proteins expressed in nerves, or to excised human nerves, nerve extracts, or muscle, as described further below.
For screening against the specified target proteins in Table 1, including LN211, LN411, LN421, and LN521, the phage library was processed by up to 4 binding and wash cycles. For selection, phage libraries were incubated for up to 24 hours at 4° C. in 96 well plates that had been coated with one of the target proteins. Plates were then washed with PBS and phage were eluted using 0.2M glycine pH 2.0. Phage supernatants where then neutralized with Tris pH 9.0 prior to plating on TGI bacteria and LB agar plates. Colonies were counted to determine titer followed by DNA preparation of pools of phage and NextGen sequencing. After rounds of selection, phage were pooled and amplified for iterative selection. Phage that were bound at each round were sequenced. NextGen sequencing of pools after 2, 3 and 4 rounds of selection was used to isolate candidate sequences that were analyzed further to identify those that specifically bound each unique target protein.
For all NEB sequence datasets, a python script was used to translate, trim, and filter the peptide sequences (see details above). A python script was used to group peptides from different assays according to laminin complex binding (laminin complex 211, 411, 421, or 521) and combine the unique sequence counts for each peptide. An R script was written to merge the peptide sequences from different data files and determine peptides that specifically bind one laminin complex and not the others, or that bind both laminin 421 and 521 but not 211 and 411.
Take “TILKPAAQGFAD (Laminin 421/521-binding peptide)”: the Count is listed as 27.

Turning to “CTGRISKHC (Laminin 421/521-binding peptide)”, the Count is listed as 43.

Take “VIADQSKSAVAV (Laminin 421/521-binding peptide)”: the Count is on record as 27.

For the substance “LDRNADSVRAVL (Laminin 421/521-binding peptide)”, the Count is on record as 46.

Turning to “GDVITAYINPWP (Laminin 421/521-binding peptide)”, the Count was found to be 39.

For the substance “VPSYILR (Laminin 421/521-binding peptide)”, the Count worked out at 30.

As to “HPAWADFFTMSS (Laminin 421/521-binding peptide)”, the Count stood at 29.

As to “CWSGNSRSC (Laminin 421/521-binding peptide)”, the Count is 42.

For the substance “CKSPIKGTC (Laminin 421/521-binding peptide)”, the Count amounted to 27.

“TFAAAQAELIMV (Laminin 421/521-binding peptide)”: the Count was found to be 38.

For the substance “GGGYHIFGPLVT (Laminin 421/521-binding peptide)”, the Count came to 43.

For the substance “CKWTQLWGC (Laminin 421/521-binding peptide)”, the Count turned out to be 40.

Take “CTDGRNFVC (Laminin 421/521-binding peptide)”: the Count is 28.

Take “EVERILTPHVNN (Laminin 421/521-binding peptide)”: the Count amounted to 29.

As to “SLAVANTRFMIR (Laminin 421/521-binding peptide)”, the Count turned out to be 49.

For “SDRGKTVLHGQI (Laminin 421/521-binding peptide)”, the Count worked out at 54.

Turning to “NGHEVQSRAANR (Laminin 421/521-binding peptide)”, the Count is recorded as 29.

In the case of “WAYTDYM (Laminin 421/521-binding peptide)”, the Count turned out to be 35.

For the substance “SFRNLEKLSLWS (Laminin 421/521-binding peptide)”, the Count came to 50.

Take “CHRTYNSTC (Laminin 421/521-binding peptide)”: the Count is given as 46.

For “RALDRYLPWSPH (Laminin 421/521-binding peptide)”, the Count was 28.

As to “GDLLLKR (Laminin 421/521-binding peptide)”, the Count was 47.

As for “DDLLTAPRLGVW (Laminin 421/521-binding peptide)”, the Count was determined as 54.

On to “CKSPAIKGC (Laminin 421/521-binding peptide)”, for which the Count came to 29.

On to “TTNGVPGHDRSP (Laminin 421/521-binding peptide)”, for which the Count stood at 46.

As to “WTKHNTPAHHLS (Laminin 421/521-binding peptide)”, the Count was determined as 89.

Regarding “MTHSAHNSQKTN (Laminin 421/521-binding peptide)”, the Count is reported as 117.

On to “GWTSDLSRNVRG (Laminin 421/521-binding peptide)”, for which the Count came to 28.

For “QGWFRHS (Laminin 421/521-binding peptide)”, the Count is given as 121.

As to “SLPYAASLNSVE (Laminin 421/521-binding peptide)”, the Count was 28.

Take “LARSSIMAANNV (Laminin 421/521-binding peptide)”: the Count is given as 42.

“QGHPFIY (Laminin 421/521-binding peptide)”: the Count worked out at 40.

In the case of “WEEHRVEILPDV (Laminin 421/521-binding peptide)”, the Count came to 38.

On to “GGWQSLWDKPEH (Laminin 421/521-binding peptide)”, for which the Count came out at 31.

“KISMNRLHANFT (Laminin 421/521-binding peptide)”: the Count is 110.

As to “GQPRNIHLPGTH (Laminin 421/521-binding peptide)”, the Count is listed as 40.

Consider “TKGIAPK (Laminin 421/521-binding peptide)”, for which the Count was 28.

Turning to “TALSHRHEAMRW (Laminin 421/521-binding peptide)”, the Count is 28.

For “EYWHQRGSWFHR (Laminin 421/521-binding peptide)”, the Count stood at 55.

Take “GAMMNSNNLVAR (Laminin 421/521-binding peptide)”: the Count is 43.

As for “NHDQGSLTRWRS (Laminin 421/521-binding peptide)”, the Count is 31.

For “FNSDSRSTHQED (Laminin 421/521-binding peptide)”, the Count was found to be 29.

For “GWIQDTFVLGRS (Laminin 421/521-binding peptide)”, the Count is 40.

Regarding “AGAYTSRHAFDE (Laminin 421/521-binding peptide)”, the Count is recorded as 39.

Consider “CSLANPATC (Laminin 421/521-binding peptide)”, for which the Count worked out at 52.

“GYRSFIHENWSI (Laminin 421/521-binding peptide)”: the Count is recorded as 68.

In the case of “TAPRWTQ (Laminin 421/521-binding peptide)”, the Count came out at 30.

For “QGWEFQVPARHS (Laminin 421/521-binding peptide)”, the Count came out at 30.

As for “QTFHEYLNPARG (Laminin 421/521-binding peptide)”, the Count stood at 37.

As for “HTQIHRL (Laminin 421/521-binding peptide)”, the Count came out at 28.

With “RNLHYPLNHPFM (Laminin 421/521-binding peptide)”, the Count is reported as 30.

On to “CSRAGLSAC (Laminin 421/521-binding peptide)”, for which the Count was 30.

For the substance “CSVWNSGNC (Laminin 421/521-binding peptide)”, the Count is 43.

The values are drawn from patent US20240207421A1, “NERVE TARGETING PEPTIDES AND METHODS OF USE” (ALUME BIOSCIENCES, INC., priority 2020, published 2024).
